In publication PMC11515387, “VvD14c-VvMAX2-VvLOB/VvLBD19 module is involved in the strigolactone-mediated regulation of grapevine root architecture” (Molecular Horticulture, 2024):
pKd: −log10 of the molar value.

Target: T1, VvD14c (Vitis vinifera, UniProt A0ACM8QNI4)
T1 construct: gene VIT_18s0001g09140; pET-28b, His-tag, E. coli Rosetta (DE3); VvD14c encodes 267 amino acids
Experiment: surface plasmon resonance (Biacore 8K, CM5 chip, LMW multi-cycle kinetics/affinity)
Format: binding

T1 sequence (A0ACM8QNI4 entry or part of it): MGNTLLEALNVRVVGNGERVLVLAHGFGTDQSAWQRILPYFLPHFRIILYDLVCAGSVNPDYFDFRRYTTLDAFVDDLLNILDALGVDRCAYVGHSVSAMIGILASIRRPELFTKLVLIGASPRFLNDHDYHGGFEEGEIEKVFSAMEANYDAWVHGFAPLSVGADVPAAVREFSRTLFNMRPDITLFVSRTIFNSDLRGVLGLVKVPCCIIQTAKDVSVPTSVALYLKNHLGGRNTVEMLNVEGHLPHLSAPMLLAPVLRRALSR

How did the pKd turn out when `CC1=C[C@@H](O/C=C2/C(=O)O[C@@H]3c4ccccc4C[C@H]23)OC1=O` [GR24] was run?
Its pKd is 8.25.
